Where “and” joins values, the source holds several entries; their conditions need not be identical. Equal entries are not always repeated.
Assays:
[1] = Total radioactivity PK in plasma; format: in vivo, human
Method: (§1) Venous blood samples (18 mL/time point) were collected by either direct venipuncture or from an indwelling cannula inserted into a vein of the forearm into tubes containing potassium ethylene diamine tetra acetic acid (K2‐EDTA) at the following times for metabolite characterization, total radioactivity and parent drug analysis: Pre‐dose, 0.5, 1, 1.5, 2, 3, 4, 6, 8, 12, 24, 48, 72, 96, 120 and 144 h post‐dose. Urine samples were collected into pre‐weighed, uniquely labeled containers pre‐dose (before drug administration) and at the following intervals: 0–4, 4–8, 8–24, 24–48, 48–72, 72–96, 96–120 and 120–144 h post‐dose. Feces samples were collected quantitatively into uniquely labeled, polypropylene containers pre‐dose (before drug administration) and individually until 144 h post‐dose. Urine and feces samples were frozen at −20°C and blood samples at −70°C.
(§2) Analysis of total radioactivity data in plasma, blood, feces, and urine was performed by Covance Laboratories Inc. All sample combustions were performed in a Model 307 Sample Oxidizer (Packard Instrument Company) and the resulting ^14CO2 was trapped in a mixture of Perma Fluor™ (Perkin Elmer) and Carbo Sorb® (Perkin Elmer). Oxidation efficiency was evaluated on each day of sample combustion by analyzing a commercial radiolabeled standard both directly in a scintillation cocktail and by oxidation. […] EcoLite™(+) scintillation cocktail was used for samples analyzed directly. All samples were analyzed for radioactivity in Model 2900TR or 2910TR liquid scintillation counters (Packard Instrument Company) for at least 5 min or 100 000 counts. Each sample was homogenized or mixed before radioanalysis (unless the entire sample was used for analysis). All samples were analyzed in duplicate or triplicate, as applicable, if sample size allowed. If results from sample replicates (calculated as ^14C disintegrations per minute (dpm)/g sample) differed by more than 10% from the mean value and sample aliquots had radioactivity greater than 200 dpm, the sample was re‐homogenized or remixed and reanalyzed (if the sample size permitted).
(§3) Blood samples were mixed and duplicate aliquots of each (approximately 0.4 g) were combusted and analyzed by liquid scintillation […]. Plasma and urine samples were separately mixed and duplicate weighed aliquots of each (approximately 0.4 g for plasma and 0.2 g for urine) were analyzed directly by LSC. Urine volumes provided by the Covance clinical research unit were entered as a weight assuming a specific gravity of 1 g/mL. Feces samples were analyzed individually (samples were not combined by interval) and the weight of each individual sample was recorded. A weighed amount of methanol:water (20:80, v:v; approximately 2 to 3 times the sample weight, such that the homogenate weight:sample weight ratio was approximately 3 to 4) was added and the sample was mixed and homogenized using a probe type homogenizer. Triplicate‐weighed aliquots (approximately 0.2 g) were combusted and analyzed by LSC. The empty treatment vial from each subject was analyzed by adding a weighed amount of methanol to each vial and analyzing duplicate weighed aliquots (approximately 0.5 g) of each extract by LSC. Residual radioactivity recovered from each treatment vial was subtracted from the dose administered to the appropriate subject.
The total radioactivity in blood and plasma was determined by LSC. Nominal sampling time points were used for deriving total radioactivity blood and plasma PK data. […]

[2] = Mass balance: excretion of radioactivity in urine and feces (LSC); format: in vivo, human
Method: (§4) This study (ClinicalTrials.gov ID, NCT01436656) was a single‐center, open‐label study to investigate the ADME of encorafenib after a single oral administration of 100 mg (90 μCi) [^14C] encorafenib in healthy male subjects. A total of four evaluable subjects were enrolled and dosed. The study consisted of a screening period, a baseline period, a single dose treatment and a 96 h post‐dose observation period. A safety follow‐up assessment by phone was conducted 30 days after administration of 100 mg (90 μCi) [^14C] encorafenib. Subjects completed an overnight fast of at least 10 h prior to administration of the study drug. Subjects were discharged from the clinical site provided that the subject's recovery of [^14C] encorafenib‐related radioactivity was at least 90% of the administered dose. The study duration period could be prolonged if the subject's recovery of related radioactivity was less than 90% by the fifth‐day post‐treatment or the subject had two consecutive 24‐h combined urine and fecal collections yielding ≥1% of dose.
as §1
as §2, with “Each sample was homogenized or mixed before radioanalysis (unless the entire sample was used for analysis).” left out
Blood samples were mixed and duplicate aliquots of each (approximately 0.4 g) were combusted and analyzed by liquid scintillation […]. Plasma and urine samples were separately mixed and duplicate weighed aliquots of each (approximately 0.4 g for plasma and 0.2 g for urine) were analyzed directly by LSC. […] Feces samples were analyzed individually (samples were not combined by interval) and the weight of each individual sample was recorded. […]

[3] = Total radioactivity PK in whole blood; format: in vivo, human
Method: as §1, §2, §3
The total radioactivity in blood and plasma was determined by LSC. Nominal sampling time points were used for deriving total radioactivity blood and plasma PK data. PK parameters (maximum concentration (C max), time to maximum concentration (T max), terminal half‐life(t 1/2) time to last measurable concentration (T last), area under the curve to the last measurable time point (AUClast), area under the curve extrapolated to infinity (AUCinf)) describing blood and plasma total radioactivity were determined using non‐compartmental methods via WinNonlin® Professional (Version 6.3, Pharsight). […]

[4] = Safety and tolerability in healthy male subjects; format: in vivo, human
Method: as §4

CYP2C19 = tested on: CYP2C19; set-up: method as in earlier work; conditions: cited from earlier work
[5] = set-up: method as in earlier work; conditions: cited from earlier work
CYP2D6 = tested on: CYP2D6; set-up: method as in earlier work; conditions: cited from earlier work
[6] = mean, through last collection interval (144 h)
[7] = whole blood, Median (Minimum–Maximum)
[8] = single 100 mg oral dose, 4 healthy male subjects

- Cmax, total radioactivity ([1]; Mean (SD)): 2170 (107) ngEq/mL
- T1/2, total radioactivity ([1]; Mean (SD)): 5.1 h and 5.1 (1.30) h
- Cmax, total radioactivity ([1]; Median (Minimum–Maximum)): 2190 (2020–2330) ngEq/mL
- T1/2, total radioactivity ([1]; Median (Minimum–Maximum)): 4.5 (7.1–4.3) h
- Tmax, total radioactivity ([1]; Median (Minimum–Maximum)): 1.3 h
- Fraction of oral absorption (Fa) ([2]; estimated from urine radioactivity plus fecal metabolites, assumes stability in feces and GI tract): ≥ 86%
- Mass balance (total radioactivity recovered) ([2]; mean ± SD of four subjects, by end of Day 6 (144 h post-dose)): 94.5 ± 0.63 % dose
- Radioactivity recovered in feces [2, 6]: 47.2 % of the dose
- Radioactivity recovered in urine [2, 6]: 47.2 % of the dose and 47 % of the dose
- Overall recovery of radioactivity in the excreta, in all four subjects ([2]; single oral 100 mg [14C] encorafenib, urine + feces, bound holding for each subject): ≥ 93.9% and > 90%
- [blood]:[plasma] AUC ratio for total radioactivity ([3]; mean): 0.58
- [blood]/[plasma] total radioactivity, 1 to 24 h post-dose ([3]; mean (SD)): 0.59 [0.02]
- AUCinf, total radioactivity ([3]; whole blood, Mean (SD)): 8950 (1310) ngEq*h/mL
- Cmax, total radioactivity ([3]; whole blood, Mean (SD)): 1330 (103) ngEq/mL
- T1/2, total radioactivity ([3]; whole blood, Mean (SD)): 4.8 h and 4.8 (0.48) h
- AUCinf, total radioactivity [3, 7]: 8760 (7670–10 600) ngEq*h/mL
- Cmax, total radioactivity [3, 7]: 1320 (1230–1460) ngEq/mL
- T1/2, total radioactivity [3, 7]: 4.6 (4.5–5.5) h
- Tmax, total radioactivity [3, 7]: 1.0 h
SMILES: COC(=O)N[C@@H](C)CNc1nccc(-c2cn(C(C)C)nc2-c2cc(Cl)cc(NS(C)(=O)=O)c2F)n1 [encorafenib]
- Grade 2, 3 or 4 adverse events ([4]; single 100 mg oral dose): No grade 2, 3 or 4 AEs were reported
- Subjects with AEs suspected to be related to the study drug [4, 8]: 50.0%
- Subjects with at least one adverse event [4, 8]: 75.0%
- Laboratory evaluations, vital signs, ECG ([4]; single-dose administration): no significant abnormalities
- Overall safety and tolerability ([4]; single-dose administration): safe and well‐tolerated
- Contribution of CYP2C19 to metabolism (CYP2C19): 16%
- Dose proportionality of systemic exposure ([5]; after a single dose, dose range 50 mg to 700 mg): dose‐proportional
- Variability of apparent oral clearance, encorafenib labeling [5]: 54%
- Contribution of CYP2D6 to metabolism (CYP2D6): 1%
